# From ChEMBL document CHEMBL5291721, “A preclinical secondary pharmacology resource illuminates target-adverse drug reaction associations of marketed drugs” (Nat Commun, 2023)
# Key:
# [1] = molecular target: T1, Prostaglandin G/H synthase 1 (Rattus norvegicus, UniProt Q63921); format: functional
# T1 sequence (Q63921 whole entry): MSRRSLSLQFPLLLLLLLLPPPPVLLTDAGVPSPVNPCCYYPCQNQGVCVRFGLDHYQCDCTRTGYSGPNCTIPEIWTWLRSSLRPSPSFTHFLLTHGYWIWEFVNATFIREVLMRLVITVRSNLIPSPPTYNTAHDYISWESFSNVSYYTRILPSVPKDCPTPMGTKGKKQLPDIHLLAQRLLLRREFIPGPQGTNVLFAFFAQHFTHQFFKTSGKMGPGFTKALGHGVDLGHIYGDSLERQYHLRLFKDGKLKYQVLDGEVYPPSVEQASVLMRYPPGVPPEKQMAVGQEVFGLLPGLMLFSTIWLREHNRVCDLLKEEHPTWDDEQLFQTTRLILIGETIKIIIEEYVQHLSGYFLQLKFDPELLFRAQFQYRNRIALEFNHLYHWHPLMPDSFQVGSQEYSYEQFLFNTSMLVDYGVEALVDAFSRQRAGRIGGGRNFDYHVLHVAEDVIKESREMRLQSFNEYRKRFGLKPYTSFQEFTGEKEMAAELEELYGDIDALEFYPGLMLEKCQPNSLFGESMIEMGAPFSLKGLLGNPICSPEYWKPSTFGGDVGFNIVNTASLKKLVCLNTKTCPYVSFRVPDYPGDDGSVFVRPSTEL
# [2] = molecular target: T2, Gastrin/cholecystokinin type B receptor (Homo sapiens, UniProt P32239)
# T2 sequence (P32239 whole entry): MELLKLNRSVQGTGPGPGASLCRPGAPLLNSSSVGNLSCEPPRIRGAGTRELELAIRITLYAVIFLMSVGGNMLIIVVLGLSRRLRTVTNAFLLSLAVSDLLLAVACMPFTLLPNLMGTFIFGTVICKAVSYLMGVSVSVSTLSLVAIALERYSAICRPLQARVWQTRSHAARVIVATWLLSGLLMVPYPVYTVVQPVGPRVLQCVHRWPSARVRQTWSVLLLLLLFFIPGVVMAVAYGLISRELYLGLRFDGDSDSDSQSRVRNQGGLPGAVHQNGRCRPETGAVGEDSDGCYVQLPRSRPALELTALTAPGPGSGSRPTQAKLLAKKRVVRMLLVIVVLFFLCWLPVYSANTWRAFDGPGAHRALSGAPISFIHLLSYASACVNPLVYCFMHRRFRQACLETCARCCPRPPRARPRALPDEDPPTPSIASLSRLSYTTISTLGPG
# [3] = molecular target: T3, Alpha-1A adrenergic receptor (Homo sapiens, UniProt P35348)
# T3 sequence (P35348 whole entry): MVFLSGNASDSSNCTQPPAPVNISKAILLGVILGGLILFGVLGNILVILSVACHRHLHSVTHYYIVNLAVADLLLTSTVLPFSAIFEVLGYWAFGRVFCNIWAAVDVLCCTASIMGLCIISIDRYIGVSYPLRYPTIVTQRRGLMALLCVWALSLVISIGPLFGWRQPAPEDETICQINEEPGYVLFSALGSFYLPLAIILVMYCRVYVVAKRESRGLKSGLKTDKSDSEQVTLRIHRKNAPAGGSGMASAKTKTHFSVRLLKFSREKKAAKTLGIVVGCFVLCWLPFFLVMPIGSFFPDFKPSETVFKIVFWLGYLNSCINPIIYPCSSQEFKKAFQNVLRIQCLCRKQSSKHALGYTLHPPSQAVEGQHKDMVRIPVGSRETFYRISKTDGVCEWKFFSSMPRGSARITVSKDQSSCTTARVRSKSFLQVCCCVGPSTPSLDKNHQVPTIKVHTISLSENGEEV
# [4] = molecular target: T3, Alpha-1A adrenergic receptor; format: functional, cell-based
# [5] = molecular target: T4, Neuropeptide Y receptor type 1 (Homo sapiens, UniProt P25929)
# T4 sequence (P25929 whole entry): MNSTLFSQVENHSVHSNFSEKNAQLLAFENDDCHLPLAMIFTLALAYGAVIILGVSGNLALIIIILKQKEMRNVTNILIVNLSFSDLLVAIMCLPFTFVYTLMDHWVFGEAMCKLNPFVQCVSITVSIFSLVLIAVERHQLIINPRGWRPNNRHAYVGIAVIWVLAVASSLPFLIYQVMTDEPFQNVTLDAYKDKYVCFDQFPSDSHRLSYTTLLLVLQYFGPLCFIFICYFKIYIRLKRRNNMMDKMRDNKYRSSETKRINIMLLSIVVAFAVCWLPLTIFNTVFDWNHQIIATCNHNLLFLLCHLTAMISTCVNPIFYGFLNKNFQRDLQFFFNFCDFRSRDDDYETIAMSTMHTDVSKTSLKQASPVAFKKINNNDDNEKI
# [6] = molecular target: T5, Amine oxidase [flavin-containing] A (Homo sapiens, UniProt P21397); format: functional
# T5 sequence (P21397 whole entry): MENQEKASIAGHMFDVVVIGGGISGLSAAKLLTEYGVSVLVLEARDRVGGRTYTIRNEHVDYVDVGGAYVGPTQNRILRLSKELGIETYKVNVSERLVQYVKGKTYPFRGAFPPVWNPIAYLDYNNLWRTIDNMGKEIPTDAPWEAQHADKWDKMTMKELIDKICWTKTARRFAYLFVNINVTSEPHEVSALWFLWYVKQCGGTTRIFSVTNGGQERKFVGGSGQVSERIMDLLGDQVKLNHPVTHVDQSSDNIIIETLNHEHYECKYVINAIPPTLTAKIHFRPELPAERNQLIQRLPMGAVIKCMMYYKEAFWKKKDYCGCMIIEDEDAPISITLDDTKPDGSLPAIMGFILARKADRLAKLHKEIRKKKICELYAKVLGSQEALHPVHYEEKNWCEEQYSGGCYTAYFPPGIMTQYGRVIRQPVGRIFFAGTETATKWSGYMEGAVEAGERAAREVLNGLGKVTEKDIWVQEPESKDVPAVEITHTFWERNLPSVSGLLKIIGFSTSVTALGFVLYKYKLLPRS
# [7] = molecular target: 5-hydroxytryptamine receptor 2B (Homo sapiens, UniProt P41595); format: functional, cell-based
# Chain of 5-hydroxytryptamine receptor 2B (P41595 whole entry): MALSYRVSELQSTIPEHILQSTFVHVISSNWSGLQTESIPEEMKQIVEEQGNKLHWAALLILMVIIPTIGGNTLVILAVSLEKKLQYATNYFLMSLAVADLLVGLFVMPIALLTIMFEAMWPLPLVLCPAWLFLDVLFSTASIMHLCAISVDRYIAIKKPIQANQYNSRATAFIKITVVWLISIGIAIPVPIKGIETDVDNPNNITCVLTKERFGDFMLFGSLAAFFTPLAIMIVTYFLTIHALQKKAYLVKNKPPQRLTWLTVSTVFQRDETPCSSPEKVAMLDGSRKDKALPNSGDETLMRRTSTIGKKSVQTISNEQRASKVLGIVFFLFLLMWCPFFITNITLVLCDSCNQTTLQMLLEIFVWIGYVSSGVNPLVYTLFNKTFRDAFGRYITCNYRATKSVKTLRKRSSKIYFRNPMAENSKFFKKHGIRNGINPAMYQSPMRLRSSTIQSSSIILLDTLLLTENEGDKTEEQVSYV
# [8] = molecular target: Growth hormone secretagogue receptor type 1 (Homo sapiens, UniProt Q92847)
# Chain of Growth hormone secretagogue receptor type 1 (Q92847 whole entry): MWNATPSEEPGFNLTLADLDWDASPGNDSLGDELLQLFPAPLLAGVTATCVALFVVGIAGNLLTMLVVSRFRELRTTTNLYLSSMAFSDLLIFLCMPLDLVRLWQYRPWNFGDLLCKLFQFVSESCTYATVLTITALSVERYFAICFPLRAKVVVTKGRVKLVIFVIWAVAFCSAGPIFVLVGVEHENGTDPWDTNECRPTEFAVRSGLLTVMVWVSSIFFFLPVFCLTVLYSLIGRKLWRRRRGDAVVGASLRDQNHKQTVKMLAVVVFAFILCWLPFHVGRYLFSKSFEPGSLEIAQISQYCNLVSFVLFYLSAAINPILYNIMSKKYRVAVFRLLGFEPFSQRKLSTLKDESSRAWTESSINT
# [9] = molecular target: T3, Alpha-1A adrenergic receptor; format: functional, cell-based; remark: listed apart in the source
# Cannabinoid receptor 1 = Cannabinoid receptor 1 (Homo sapiens, UniProt P21554)
# Chain of Cannabinoid receptor 1 (P21554 whole entry): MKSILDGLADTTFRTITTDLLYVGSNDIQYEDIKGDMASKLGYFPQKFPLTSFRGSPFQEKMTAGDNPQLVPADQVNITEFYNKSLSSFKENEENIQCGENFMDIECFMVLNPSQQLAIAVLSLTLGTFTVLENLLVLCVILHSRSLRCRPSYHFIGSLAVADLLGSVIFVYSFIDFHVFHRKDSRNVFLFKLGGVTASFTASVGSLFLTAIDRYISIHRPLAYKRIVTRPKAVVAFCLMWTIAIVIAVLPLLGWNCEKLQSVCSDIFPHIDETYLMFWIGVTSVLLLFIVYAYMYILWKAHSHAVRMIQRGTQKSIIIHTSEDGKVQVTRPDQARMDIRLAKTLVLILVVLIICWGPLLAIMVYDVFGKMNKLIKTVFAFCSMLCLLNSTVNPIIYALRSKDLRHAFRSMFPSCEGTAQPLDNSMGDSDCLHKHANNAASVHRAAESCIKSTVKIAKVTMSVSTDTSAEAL
# Melanocortin receptor 4 = Melanocortin receptor 4 (Homo sapiens, UniProt P32245)
# Chain of Melanocortin receptor 4 (P32245 whole entry): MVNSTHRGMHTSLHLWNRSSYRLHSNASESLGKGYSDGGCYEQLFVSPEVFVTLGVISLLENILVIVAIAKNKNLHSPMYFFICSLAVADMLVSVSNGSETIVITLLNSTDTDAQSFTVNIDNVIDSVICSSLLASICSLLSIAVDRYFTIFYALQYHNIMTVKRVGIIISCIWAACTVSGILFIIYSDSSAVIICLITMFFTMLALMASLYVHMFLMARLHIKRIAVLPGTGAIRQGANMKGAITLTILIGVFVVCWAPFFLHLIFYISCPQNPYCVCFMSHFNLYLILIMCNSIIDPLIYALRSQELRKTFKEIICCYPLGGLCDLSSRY
# Mu-type opioid receptor = Mu-type opioid receptor (Homo sapiens, UniProt P35372)
# Chain of Mu-type opioid receptor (P35372 whole entry): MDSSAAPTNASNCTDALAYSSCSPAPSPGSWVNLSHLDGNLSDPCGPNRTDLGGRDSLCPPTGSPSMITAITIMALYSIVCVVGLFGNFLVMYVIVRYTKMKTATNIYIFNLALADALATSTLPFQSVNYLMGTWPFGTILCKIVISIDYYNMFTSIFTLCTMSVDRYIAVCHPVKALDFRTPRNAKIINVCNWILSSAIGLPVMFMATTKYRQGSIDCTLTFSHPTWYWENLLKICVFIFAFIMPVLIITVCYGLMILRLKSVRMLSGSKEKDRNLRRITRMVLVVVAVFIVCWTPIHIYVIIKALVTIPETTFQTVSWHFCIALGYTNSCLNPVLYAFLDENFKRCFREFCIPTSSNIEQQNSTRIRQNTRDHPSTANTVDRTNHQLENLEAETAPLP
# Further: assay procedure not described here.
structure (smiles),measurement,setting,value
COc1ccccc1N1CCN(CCCNc2cc(=O)n(C)c(=O)n2C)CC1,AC50,[1],> 30 µM
same,AC50,[2],> 30 µM
same,AC50,[3],0.0043 µM
same,AC50,[4],0.57 µM
same,AC50,[5],> 30 µM
same,AC50,[6],> 30 µM
same,AC50,[7],> 30 µM
same,AC50,[8],> 30 µM
same,AC50,[9],> 30 µM
Cc1cc(O)c(C(=O)N[C@@H](C(=O)N[C@@H]2C(=O)N3C(C(=O)O)=C(CSc4nnnn4C)CS[C@H]23)c2ccc(O)cc2)cn1 [CEFPIRAMIDE],AC50,[1],> 30 µM
same,AC50,[2],> 30 µM
same,AC50,Cannabinoid receptor 1,> 30 µM
same,AC50,[3],> 30 µM
same,AC50,[5],> 30 µM
same,AC50,[6],> 30 µM
same,AC50,[7],> 30 µM
same,AC50,Melanocortin receptor 4,> 30 µM
same,AC50,[8],> 30 µM
COC(=O)C1=C(C)NC(C)=C(C(=O)OC(C)(C)CN(C)CCC(c2ccccc2)c2ccccc2)C1c1cccc([N+](=O)[O-])c1 (stereo unspecified) [LERCANIDIPINE],AC50,[1],18.7 µM
same,AC50,[2],> 30 µM
same,AC50,Cannabinoid receptor 1,6.6 µM
same,AC50,[3],5.7 µM
same,AC50,[5],> 30 µM
same,AC50,[6],> 30 µM
same,AC50,[7],> 30 µM
same,AC50,Melanocortin receptor 4,> 30 µM
same,AC50,[8],> 30 µM
CC(C(=O)O)c1ccc(N2Cc3ccccc3C2=O)cc1 (stereo unspecified) [INDOPROFEN],AC50,[1],0.0694 µM
same,AC50,[2],> 30 µM
same,AC50,Cannabinoid receptor 1,> 30 µM
same,AC50,[3],> 30 µM
same,AC50,[4],> 30 µM
same,AC50,Mu-type opioid receptor,> 30 µM
same,AC50,[5],> 30 µM
same,AC50,[6],> 30 µM
same,AC50,[7],> 30 µM
same,AC50,[8],> 30 µM
same,AC50,[9],> 30 µM
NCC(=O)CCC(=O)O [AMINOLEVULINIC ACID],AC50,[1],> 30 µM
same,AC50,[2],> 30 µM
same,AC50,[4],> 30 µM
same,AC50,Mu-type opioid receptor,> 30 µM
same,AC50,[5],> 30 µM
same,AC50,[6],> 30 µM
same,AC50,[7],> 30 µM
same,AC50,[8],> 30 µM
same,AC50,[9],> 30 µM
Nc1nc(/C(=C/CC(=O)O)C(=O)N[C@@H]2C(=O)N3C(C(=O)O)=CCS[C@H]23)cs1 [CEFTIBUTEN],AC50,[1],> 30 µM
same,AC50,[2],> 30 µM
same,AC50,Cannabinoid receptor 1,> 30 µM
same,AC50,[4],> 30 µM
same,AC50,[5],> 30 µM
same,AC50,[6],> 30 µM
same,AC50,[7],> 30 µM
same,AC50,Melanocortin receptor 4,> 30 µM
same,AC50,[8],> 30 µM
same,AC50,[9],> 30 µM
C/C(O)=C(\C#N)C(=O)Nc1ccc(C(F)(F)F)cc1 [TERIFLUNOMIDE],AC50,[1],> 30 µM
same,AC50,[4],21 µM
same,AC50,Mu-type opioid receptor,> 30 µM
same,AC50,[6],4.9 µM
same,AC50,[7],> 30 µM
same,AC50,[8],> 30 µM
same,AC50,[9],> 30 µM
CC(=O)O[C@H]1CC[C@@]2(C)C(=CC[C@@H]3[C@@H]2CC[C@]2(C)C(c4cccnc4)=CC[C@@H]32)C1 [ABIRATERONE ACETATE],AC50,[1],> 30 µM
same,AC50,[3],> 10 µM
same,AC50,[4],> 30 µM
same,AC50,Mu-type opioid receptor,> 30 µM
same,AC50,[6],> 30 µM
same,AC50,[8],> 30 µM
same,AC50,[9],> 30 µM
CCOC(=O)[C@H](CCc1ccccc1)N[C@@H](C)C(=O)N1C(=O)N(C)C[C@H]1C(=O)O,AC50,[1],12 µM
same,AC50,[2],> 30 µM
same,AC50,[4],> 30 µM
same,AC50,[5],> 30 µM
same,AC50,[6],> 30 µM
same,AC50,[7],> 30 µM
same,AC50,[8],> 30 µM
same,AC50,[9],> 30 µM
CCOC(=O)OC(C)OC1=C(C(=O)Nc2ccccn2)N(C)S(=O)(=O)c2ccccc21 (stereo unspecified) [AMPIROXICAM],AC50,[1],> 30 µM
same,AC50,[2],> 30 µM
same,AC50,[4],> 30 µM
same,AC50,[5],> 30 µM
same,AC50,[6],> 30 µM
same,AC50,[7],> 30 µM
same,AC50,[8],> 30 µM
same,AC50,[9],> 30 µM
CC(C)=CCC/C(C)=C/C=C/C(C)=C/C=C/C(C)=C/C=C/C=C(C)/C=C/C=C(C)/C=C/C=C(\C)CCC=C(C)C [LYCOPENE],AC50,[1],> 30 µM
same,AC50,[2],> 30 µM
same,AC50,Cannabinoid receptor 1,> 30 µM
same,AC50,[4],> 30 µM
same,AC50,[5],> 30 µM
same,AC50,[6],> 30 µM
same,AC50,[7],> 30 µM
same,AC50,[8],> 30 µM
same,AC50,[9],> 30 µM
C=CCN1CCCC1CNC(=O)c1cc(S(N)(=O)=O)cc(OC)c1OC (stereo unspecified) [VERALIPRIDE],AC50,[1],> 30 µM
same,AC50,[2],> 30 µM
same,AC50,[4],> 30 µM
same,AC50,[5],> 30 µM
same,AC50,[6],> 30 µM
same,AC50,[7],> 30 µM
same,AC50,[8],> 30 µM
same,AC50,[9],> 30 µM
COC(=O)C1=C(C)NC(C)=C(C(=O)OC2CCCN(Cc3ccccc3)C2)C1c1cccc([N+](=O)[O-])c1 (stereo unspecified) [BENIDIPINE],AC50,[1],> 30 µM
same,AC50,[2],> 30 µM
same,AC50,[3],3 µM
same,AC50,[5],> 30 µM
same,AC50,[6],> 30 µM
same,AC50,[7],> 30 µM
same,AC50,[8],26 µM
same,AC50,[9],4.5 µM
COc1ccc(-c2ccc3cc(C(=O)O)ccc3c2)cc1C12CC3CC(CC(C3)C1)C2,AC50,[1],> 30 µM
same,AC50,[2],> 30 µM
same,AC50,[4],> 30 µM
same,AC50,[5],> 30 µM
same,AC50,[6],> 30 µM
same,AC50,[7],> 30 µM
same,AC50,[8],> 30 µM
same,AC50,[9],> 30 µM
COc1cc2c(N)nc(N3CCN(C(=O)OCC(C)(C)O)CC3)nc2c(OC)c1OC [TRIMAZOSIN],AC50,[1],> 30 µM
same,AC50,[2],> 30 µM
same,AC50,[3],1.8 µM
same,AC50,[4],1.2 µM
same,AC50,[5],> 30 µM
same,AC50,[6],> 30 µM
same,AC50,[7],> 30 µM
same,AC50,[8],> 30 µM
same,AC50,[9],> 30 µM
CC(=O)O[C@H]1C[C@@H]2CC[C@@H]3[C@H](CC[C@@]4(C)[C@H]3C[C@H]([N+]3(C)CCCCC3)[C@@H]4OC(C)=O)[C@@]2(C)C[C@@H]1N1CCCCC1 [VECURONIUM],AC50,[1],14 µM
same,AC50,[2],> 30 µM
same,AC50,[4],> 30 µM
same,AC50,[5],> 30 µM
same,AC50,[6],> 30 µM
same,AC50,[7],> 30 µM
same,AC50,[8],> 30 µM
same,AC50,[9],> 30 µM
CC(Oc1c(Cl)cccc1Cl)C1=NCCN1 (stereo unspecified) [LOFEXIDINE],AC50,[1],> 30 µM
same,AC50,[2],> 30 µM
same,AC50,Cannabinoid receptor 1,> 30 µM
same,AC50,[3],0.803 µM
same,AC50,[5],> 30 µM
same,AC50,[6],> 30 µM
same,AC50,[7],> 30 µM
same,AC50,[8],> 30 µM
same,AC50,[9],0.0071 µM
